Patent publication US4916121A, “Antitumor composition comprising pyrimidine type nucleic acid derivative and 1-[(2-hydroxyethoxy)methyl]uracil derivative” (Teijin Limited, priority 1985, dated 1990)
Where two headings read alike, the source gives them in different places.

Key:
[1] = target: T1, pyrimidine nucleoside phosphorylase (Rattus norvegicus, UniProt F7F0D5); test: Inhibition of pyrimidine nucleoside phosphorylase activity in rat small intestine homogenate (decomposition of 5-fluoro-2'-deoxyuridine); type: biochemical, SD-strain rat
T1 construct: small intestine homogenates of an SD-strain male rat and a male beagle; from tissue; host or cells: small intestine homogenate of SD-strain male rat
Experimental: (§1) Inhibitory effects of 1-[(2-hydroxyethoxy)methyl]-5-methyluracil, 1-[(2-hydroxyethoxy)methyl]-5-fluoro-uracil, 1-[(2-hydroxyethoxy)methyl]-5-bromouracil on pyrimidine nucleoside phosphorylase activity in the small intestine homogenates of an SD-strain male rat and a male beagle were assayed with a lowering in decomposition rate of 5-fluoro-2'-deoxyuridine (concentration: 0.025 mM) and compared with the same effects of thymidine and deoxyuridine.

[2] = Inhibition of pyrimidine nucleoside phosphorylase activity in beagle small intestine homogenate (decomposition of 5-fluoro-2'-deoxyuridine); type: biochemical; conditions: dog, small intestine homogenate, pH 7
Experimental: as §1

[3] = test system: pyrimidine nucleoside phosphorylase; test: as above; type: biochemical; conditions: for Half-life of 5-fluoro-2'-deoxyuridine in presence of inhibitor / Inhibitory percentage: 0.4% w/v beagle small intestine homogenate, pH 7.0, 37° C.
Experimental: as §1

[4] = test system: mouse leukemia L1210; test: Antitumor effect on mouse leukemia L1210 (increase in life span), oral administration; type: in vivo; conditions: days 1, 3, 5
Text: The antitumor effect for mouse leukemia L1210 by a simultaneous oral administration of the compounds of the present invention 3',5'-didodecanoyl-5-fluoro-2'-deoxyuridine and 1-[[2-(octadecanoyloxy)ethoxy]methyl]-5-methyluracil was compared with those of (a) 5-fluoro-2'-deoxyuridine alone, (b) 3',5'-didodecanoyl-5-fluoro-2'-deoxyuridine alone, and (c) a simultaneous oral administration of 3',5'-didodecanoyl-5-fluoro-2'-deoxyuridine and 1-[(2-hydroxyethoxy)methyl]-5-methyluracil.
10^5 ascite tumor cells of mouse leukemia L1210 7 days after transplantation were transplanted intraperioneally into mouse (.male.8 weeks, Ca 25-26 g, 5 mice/group) and provided for experiments. 24 hours after transplantation of the tumor cells, the pharmaceuticals were administered orally three times on day 1, day 3 and day 5.
The antitumor effect of the pharmaceuticals were shown by the increase in life span (ILS) of the group administered with pharamaceuticals relative to the control group (with no pharmaceutical administered) (line extension %).

[5] = test system: established cell line derived from a mouse; conditions: same molar concentration, in vitro; cited from earlier work
[6] = test system: pyrimidine nucleoside phosphorylase; conditions: cited from earlier work
[7] = Hydrophilic properties: retention time in normal phase HPLC (Nucleosil 5CN); type: physicochemical; conditions: n-hexane:ethanol = 88:12, 1.2 ml/min, index of hydrophilic properties
Experimental: The retention times of the compounds of the present invention in normal phase system high performance liquid chromatograph (Nucleosil) 5 CN column were measured.

[8] = Enzymatic hydrolyzability in rat duodenum epithelial homogenate; type: in vitro ADME; conditions: rat duodenum epithelial homogenate 1% w/v, pH 7.0, 37° C.
Experimental: The hydrolysis rates of the compounds of the present invention were measured at 37° C. in rat duodenum epithelial homogenate (1%, w/v; pH 7.0).

[9] = test system: thymidine phosphorylase; test: Inhibition of thymidine phosphorylase activity and enzymatic stability in small intestine; type: biochemical; conditions: rat and beagle small intestine
Experimental: as §1

[10] = target: T1, pyrimidine nucleoside phosphorylase; test: Inhibition of pyrimidine nucleoside phosphorylase activity in rat small intestine homogenate (decomposition of 5-fluoro-2'-deoxyuridine); type: biochemical, SD-strain rat; conditions: inhibitor 0.025 mM; 0.09% w/v rat small intestine homogenate, pH 7.0, 37° C.
[11] = Inhibition of pyrimidine nucleoside phosphorylase activity in beagle small intestine homogenate (decomposition of 5-fluoro-2'-deoxyuridine); type: biochemical; conditions: dog; inhibitor 0.025 mM; 0.4% w/v beagle small intestine homogenate, pH 7.0, 37° C.
[12] = Lipid solubility: retention time in reversed phase HPLC (Lichrosorb RP-18); type: physicochemical; conditions: RP-18 4.0 × 130 mm, 1.2 ml/min, index of lipid solubility
Experimental: The retention time of the compounds of the present invention in reversed phase system high performance liquid chromatograph (Lichrosorb RP-18 column) was measured in two kinds of solvent systems.

[13] = inhibitor 0.025 mM, 0.09% w/v rat small intestine homogenate, pH 7.0, 37° C.
[14] = inhibitor 0.025 mM, 0.09% w/v rat small intestine homogenate, pH 7.0, 37° C., read-out: Inhibitory percentage
[15] = rat, small intestine homogenate, pH 7
[16] = pH 7, read-out: Inhibitory percentage

T1 sequence (F7F0D5 1-312): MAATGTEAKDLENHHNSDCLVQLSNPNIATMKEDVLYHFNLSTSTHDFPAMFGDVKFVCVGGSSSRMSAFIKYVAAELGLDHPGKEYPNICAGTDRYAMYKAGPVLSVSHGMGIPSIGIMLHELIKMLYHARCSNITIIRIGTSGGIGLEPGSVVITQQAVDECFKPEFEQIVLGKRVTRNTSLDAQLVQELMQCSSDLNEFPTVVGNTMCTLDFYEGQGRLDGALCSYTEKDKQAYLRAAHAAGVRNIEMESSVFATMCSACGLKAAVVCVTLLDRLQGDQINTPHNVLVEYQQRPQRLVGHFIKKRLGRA

Structure (SMILES): O=c1[nH]c(=O)n(COCCO)cc1F [1-[(2-hydroxyethoxy)methyl]-5-fluorouracil]
- Half-life of 5-fluoro-2'-deoxyuridine in presence of inhibitor [1, 13]: 0.823 h
- inhibition at 25 µM [1, 14]: 65.6%
- half-life at 25 µM [1, 15]: > 16.7 h
- half-life at 25 µM [2]: > 16.7 h
- Half-life of 5-fluoro-2'-deoxyuridine in presence of inhibitor ([3]; inhibitor 0.025 mM): 0.78 h
- Inhibitory percentage ([3]; inhibitor 0.025 mM): 40.6%

Structure (SMILES): O=c1[nH]c(=O)n([C@H]2C[C@H](O)[C@@H](CO)O2)cc1F [5-Fluoro-2'-deoxyuridine, 5-fluoro-2'-deoxyuridine, reference compound]
- ILS ([4]; 10 mg/kg/one dose alone): 15%
- ILS ([4]; 30 mg/kg/one dose alone): 10%
- ILS ([4]; 100 mg/kg/one dose alone): 15%
- ILS ([4]; 300 mg/kg/one dose alone): 10%
- Half-life of 5-fluoro-2'-deoxyuridine ([1]; rat, small intestine homogenate, 25 µM, pH 7): 0.283 h
- Half-life of 5-fluoro-2'-deoxyuridine ([3]; dog, small intestine homogenate, 25 µM, pH 7): 0.463 h
- antitumor activity relative to 5-fluorouracil [5]: 100 fold
- half-life in blood (in words) ([6]; after administration in living bodies): shorter half-life in blood
- decomposition by pyrimidine nucleoside phosphorylase (in words) ([6]; living bodies): rapidly decomposed

Structure (SMILES): O=c1[nH]c(=O)n(COCCO)cc1Br [1-[(2-hydroxyethoxy)methyl]-5-bromouracil]
- Half-life of 5-fluoro-2'-deoxyuridine in presence of inhibitor ([1]; inhibitor 0.01 mM, 0.09% w/v rat small intestine homogenate, pH 7.0, 37° C.): 0.542 h
- inhibition at 10 µM ([1]; inhibitor 0.01 mM, 0.09% w/v rat small intestine homogenate, pH 7.0, 37° C., read-out: Inhibitory percentage): 47.7%
- half-life at 10 µM [1, 15]: > 16.7 h
- half-life at 10 µM [2]: > 16.7 h
- Half-life of 5-fluoro-2'-deoxyuridine in presence of inhibitor ([3]; inhibitor 0.01 mM): 1.04 h
- Inhibitory percentage ([3]; inhibitor 0.01 mM): 55.5%

Structure (SMILES): CCCCCCCCCCCCCCCCCCCC(=O)OCCOCn1cc(C)c(=O)[nH]c1=O [1-[[2-(eicosanoyloxy)-ethoxy]-methyl]-5-methyluracil]
- Retention time [7]: 5.48 min
- Hydrolysis rate constant [8]: 0.052 min.^-1

Structure (SMILES): CCCCCCCCCCCCCCCCCC(=O)OCCOCn1cc(C)c(=O)[nH]c1=O [1-[[2-(octadecanoyloxy)ethoxy]methyl]-5-methyluracil]
- ILS ([4]; 450 mg/kg/one dose alone): 12%

Structure (SMILES): Cc1cn([C@H]2C[C@H](O)[C@@H](CO)O2)c(=O)[nH]c1=O [Thymidine, reference compound]
- Half-life of 5-fluoro-2'-deoxyuridine in presence of inhibitor [1, 13]: 0.51 h
- inhibition at 25 µM [1, 16]: 44.4%
- Half-life of 5-fluoro-2'-deoxyuridine in presence of inhibitor ([3]; inhibitor 0.025 mM): 0.968 h
- Inhibitory percentage ([3]; inhibitor 0.025 mM): 52.2%
- inhibitory activity against thymidine phosphorylase (in words) [9]: more potenty inhibited by thymidine than by deoxyuridine
- half-life at 25 µM [10]: 1.48 h
- half-life at 25 µM [11]: 0.45 h

Structure (SMILES): O=c1ccn([C@H]2C[C@H](O)[C@@H](CO)O2)c(=O)[nH]1 [Deoxyuridine, reference compound]
- Half-life of 5-fluoro-2'-deoxyuridine in presence of inhibitor [1, 13]: 0.37 h
- inhibition at 25 µM [1, 16]: 23.4%
- half-life at 25 µM [1, 15]: 1.1 h
- half-life at 25 µM [2]: 0.538 h
- Half-life of 5-fluoro-2'-deoxyuridine in presence of inhibitor ([3]; inhibitor 0.025 mM): 0.508 h
- Inhibitory percentage ([3]; inhibitor 0.025 mM): 8.8%

Structure (SMILES): Cc1cn(COCCO)c(=O)[nH]c1=O [1-[(2-hydroxyethoxy)methyl]-5-methyluracil]
- ILS ([4]; 200 mg/kg/one dose alone): 12%
- Half-life of 5-fluoro-2'-deoxyuridine in presence of inhibitor [1, 13]: 1.677 h
- inhibition at 25 µM [1, 14]: 83.1%
- half-life at 25 µM [1, 15]: > 16.7 h
- half-life at 25 µM [2]: > 16.7 h
- Half-life of 5-fluoro-2'-deoxyuridine in presence of inhibitor ([3]; inhibitor 0.025 mM): 1.42 h
- Inhibitory percentage ([3]; inhibitor 0.025 mM): 67.3%

Structure (SMILES): CCCCCCCCCCCCCC(=O)OC[C@H]1O[C@@H](n2cc(F)c(=O)[nH]c2=O)C[C@@H]1OC(=O)CCCCCCCCCCCCC [3'5'-ditetradecanoyl-5-fluoro-2'-deoxyuridine]
- Retention time [7]: 5.38 min
- Hydrolysis rate constant [8]: 0.027 min.^-1

Structure (SMILES): CCCCCCCCCCCC(=O)OC[C@H]1O[C@@H](n2cc(F)c(=O)[nH]c2=O)C[C@@H]1OC(=O)CCCCCCCCCCC [3'5'-didodecanoyl-5-fluoro-2'-deoxyuridine]
- Retention time (b) Acetonitrile:acetic acid (999:1) [12]: 3.00 min
- Retention time (a) Acetonitrile:water (19:1) [12]: 3.96 min
- ILS ([4]; 10 mg/kg/one dose alone): 0%
- ILS ([4]; 30 mg/kg/one dose alone): 5%
- ILS ([4]; 100 mg/kg/one dose alone): 15%
- ILS ([4]; 300 mg/kg/one dose alone): 40%

Structure (SMILES): CCCCCCCCCCCCCCCC(=O)OCCOCn1cc(C)c(=O)[nH]c1=O [1-[[2-(Hexadecanoyloxy)-ethoxy]-methyl]-5-methyluracil]
- Retention time (b) Acetonitrile:acetic acid (999:1) [12]: 3.15 min
- Retention time (a) Acetonitrile:water (19:1) [12]: 3.53 min
